Measurements reported in ChEMBL document CHEMBL5331060, “Bisindole natural products: A vital source for the development of new anticancer drugs” (Eur J Med Chem, 2022).

Test system: A549
Assay: Antiproliferative activity against human A549 cells assessed as inhibition of cell growth incubated for 72 hrs by MTT assay
Type: functional, cell-based
Conditions: A549, 72 h, pooled result: one value given for 8 cell lines, strains, targets or settings

c1ccc2c(C3(c4c[nH]c5ccccc45)CCCCC3)c[nH]c2c1
IC50: 18.7 µM
